Reference: patent publication EP0476853B1, “Triphenodioxazine dyes” (ZENECA LIMITED, priority 1990, dated 1992)

Experiment: Solubility of the dyebase in aqueous acid solvent systems
Format: physicochemical
Experimental: The solubility of the product from step (a) was then determined in the following aqueous solvent systems.

Solubility (% w/w) (solvent: 25% formic acid (aqueous)): 5.3 % w/w | Solubility (% w/w) (solvent: 25% lactic acid (aqueous)): 4.8 % w/w | solubility (solvent: 50% aqueous acetic acid (comparison)): 2.52 % w/w | Solubility (% w/w) (solvent: 50% formic acid (aqueous)): 7.5 % w/w | Solubility (% w/w) (solvent: 50% lactic acid (aqueous)): 4.9 % w/w | Solubility (% w/w) (solvent: 85% formic acid (aqueous)): 24.7 % w/w | Solubility (% w/w) (solvent: 88% lactic acid (aqueous)): 4.8 % w/w
Compound: NCCNc1ccc2c(c1)Oc1c(Cl)c3c(c(Cl)c1=N2)Oc1cc(NCCN)ccc1N=3 [Formula (3)]
